Assay results: patent US7741363B2, “3-Acylindole derivatives, preparation and therapeutic use thereof” (Sanofi-Aventis, priority 2005, dated 2010)

melting point: 123 °C
Structure (SMILES): Cc1c(C(=O)CC(C)(C)C)c2cccc(Cl)c2n1CCC[S+](C)[O-] (stereo not shown)
